Earlier results in patent publication US20090062391A1, “Use of a virucidal ointment in the nares for prevention of transmission and contraction of common colds” (priority 2007, published 2009).

Legend:
[1] = tested on: viruses which cause colds; conditions: for effectiveness against viruses which cause colds: organic acid; for effectiveness at inactivating cold viruses: surfactant combined with organic acids
herpes simplex virus = conditions: Poli et al. [5]
rhabdovirus = conditions: Poli et al. [5]
adenovirus = conditions: Poli et al. [5]; only naked virus tested
rhinovirus [2] = conditions: Hendley et al. [4]
rhinovirus [3] = conditions: hand lotions containing 2% glutaric acid, versus placebo; Hayden et al. [6]
[4] = frequent application
common colds = conditions: in vivo

Molecule: N[C@@H](CC(=O)O)C(=O)O [aspartic acid]
- effectiveness against viruses which cause colds [1]: effective

Molecule: O=C(O)CC(O)(CC(=O)O)C(=O)O [citric acid]
- antiviral activity against herpes simplex virus (herpes simplex virus): effective
- antiviral activity against rhabdovirus (rhabdovirus): effective
- antiviral activity against adenovirus (adenovirus): not effective
- effectiveness against viruses which cause colds [1]: effective

Molecule: CCO [ethyl alcohol]
- antiviral activity (rhinovirus [2]): performed poorly

Molecule: O=C(O)CCCC(=O)O [glutaric acid]
- inactivating certain serotypes of rhinovirus (rhinovirus [3]): more effective than placebo

Molecule: O=C(O)CO [glycolic acid]
- effectiveness against viruses which cause colds [1]: effective

Molecule: II [iodine]
- irritation of the skin [4]: too irritating to the skin

Molecule: CC(O)C(=O)O (centres unmarked) [lactic acid]
- effectiveness against viruses which cause colds [1]: effective

Molecule: O=C(O)CC(O)C(=O)O (centres unmarked) [malic acid]
- antiviral activity against herpes simplex virus (herpes simplex virus): effective
- antiviral activity against rhabdovirus (rhabdovirus): effective
- antiviral activity against adenovirus (adenovirus): not effective
- effectiveness against viruses which cause colds [1]: effective

Molecule: CCCCCCCCC(=O)O [pelargonic acid]
- effectiveness against viruses which cause colds [1]: effective

Molecule: CC(=O)C(=O)O [pyruvic acid]
- antiviral activity against herpes simplex virus (herpes simplex virus): effective
- antiviral activity against rhabdovirus (rhabdovirus): effective
- antiviral activity against adenovirus (adenovirus): not effective

Molecule: CCCCCCCCOC(=O)CC(C(=O)OCCCCCCCC)S(=O)(=O)O.[Na] (centres unmarked) [sodium dioctyl sulfosuccinate]
- effectiveness at inactivating cold viruses [1]: demonstrated effectiveness

Molecule: CCCCCCCCCCCCOS(=O)(=O)[O-].[Na+] [sodium dodecyl sulfate]
- effectiveness at inactivating cold viruses [1]: demonstrated effectiveness

Molecule: O=C(O)CCC(=O)O [succinic acid]
- antiviral activity against herpes simplex virus (herpes simplex virus): effective
- antiviral activity against rhabdovirus (rhabdovirus): effective
- antiviral activity against adenovirus (adenovirus): not effective

Molecule: CCCCC(=O)O [valeric acid]
- effectiveness against viruses which cause colds [1]: effective

Molecule: [Zn] [zinc]
- duration of common colds (common colds): shorten the duration

Molecule: benzalkonium chloride
- antiviral activity (rhinovirus [2]): performed poorly
